The record followed here is patent publication US12281122B1, “PI3K inhibitors” (Cogent Biosciences, Inc., priority 2023, dated 2025).

Experiment [1] concerns T47D (PI3Kα-H1047R) cell line. Description: HTRF phospho-AKT(S473) cell assay in T47D cells. The experiment is classed as cell-based, human. Particulars: Homo sapiens; T47D (PI3Kα-H1047R) cells, HTRF phospho-AKT(S473), 2 hours compound incubation. A digest of the protocol: (§1)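 T47D (PI3Kα-H1047R; RPMI, 10% FBS, insulin) and SKBR3 (wild-type PI3Kα; McCoy's 5A, 10% FBS) cells treated 2 h at 37 °C with 12-point 1:3 dilutions, top 5 μM and 10 μM respectively, ≤0.5% DMSO. SKBR3 stimulated with 70 ng/ml PDGF-BB for the last 15 min; lysate pAKT(S473) by HTRF, IC50 from curves.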

Experiment [2] deals with PI3Kα (Homo sapiens, UniProt P42336). In words: PI3Kα enzyme assay (Transcreener ADP2 TR-FRET Red Assay). The experiment is classed as biochemical. Particulars: purified recombinant full-length protein; 2 hours pre-incubation with compound; read-out: PI3Kα WT IC50. Put shortly: (§2)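 IC50 taken at 50 POC from a four-parameter logistic fit of TR-FRET (665/615 nm) ADP signal. Reactions used full-length recombinant enzyme, compound pre-incubation for 2 h, then 60 min with ATP and PI(4,5)P2 diC8 substrate at room temperature, pH 7.5 HEPES buffer with 25 mM MgCl2; compounds tested from 50,000 to 0.85 nM.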
Sequence of PI3Kα (P42336 whole entry): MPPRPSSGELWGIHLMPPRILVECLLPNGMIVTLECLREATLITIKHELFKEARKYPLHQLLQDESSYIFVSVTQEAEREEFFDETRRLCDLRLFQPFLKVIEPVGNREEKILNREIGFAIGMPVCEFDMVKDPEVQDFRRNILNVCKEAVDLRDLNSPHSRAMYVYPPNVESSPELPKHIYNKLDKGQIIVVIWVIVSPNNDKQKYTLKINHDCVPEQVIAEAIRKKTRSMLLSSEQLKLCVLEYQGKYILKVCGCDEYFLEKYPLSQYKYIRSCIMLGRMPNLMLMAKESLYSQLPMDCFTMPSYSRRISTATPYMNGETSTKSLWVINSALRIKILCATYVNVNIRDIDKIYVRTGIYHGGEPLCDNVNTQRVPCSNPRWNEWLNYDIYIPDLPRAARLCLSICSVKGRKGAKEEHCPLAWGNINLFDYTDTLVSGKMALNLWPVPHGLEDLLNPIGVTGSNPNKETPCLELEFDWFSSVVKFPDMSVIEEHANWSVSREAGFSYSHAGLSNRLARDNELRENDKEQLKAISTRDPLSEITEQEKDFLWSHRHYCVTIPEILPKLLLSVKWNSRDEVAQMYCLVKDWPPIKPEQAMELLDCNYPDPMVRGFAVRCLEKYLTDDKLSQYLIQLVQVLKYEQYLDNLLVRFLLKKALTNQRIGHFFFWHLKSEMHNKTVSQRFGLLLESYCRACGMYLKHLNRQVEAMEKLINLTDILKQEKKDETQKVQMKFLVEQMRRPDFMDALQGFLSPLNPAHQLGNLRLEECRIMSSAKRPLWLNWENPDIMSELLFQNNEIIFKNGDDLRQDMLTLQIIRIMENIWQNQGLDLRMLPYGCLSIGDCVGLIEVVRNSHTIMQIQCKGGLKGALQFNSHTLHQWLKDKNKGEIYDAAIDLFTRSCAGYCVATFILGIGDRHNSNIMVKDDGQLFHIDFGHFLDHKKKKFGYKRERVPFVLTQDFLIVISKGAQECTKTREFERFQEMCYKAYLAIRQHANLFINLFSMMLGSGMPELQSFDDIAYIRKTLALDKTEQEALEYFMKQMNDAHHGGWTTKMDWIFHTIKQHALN
Sequence of PI3Kα (P27986 2-724 partner): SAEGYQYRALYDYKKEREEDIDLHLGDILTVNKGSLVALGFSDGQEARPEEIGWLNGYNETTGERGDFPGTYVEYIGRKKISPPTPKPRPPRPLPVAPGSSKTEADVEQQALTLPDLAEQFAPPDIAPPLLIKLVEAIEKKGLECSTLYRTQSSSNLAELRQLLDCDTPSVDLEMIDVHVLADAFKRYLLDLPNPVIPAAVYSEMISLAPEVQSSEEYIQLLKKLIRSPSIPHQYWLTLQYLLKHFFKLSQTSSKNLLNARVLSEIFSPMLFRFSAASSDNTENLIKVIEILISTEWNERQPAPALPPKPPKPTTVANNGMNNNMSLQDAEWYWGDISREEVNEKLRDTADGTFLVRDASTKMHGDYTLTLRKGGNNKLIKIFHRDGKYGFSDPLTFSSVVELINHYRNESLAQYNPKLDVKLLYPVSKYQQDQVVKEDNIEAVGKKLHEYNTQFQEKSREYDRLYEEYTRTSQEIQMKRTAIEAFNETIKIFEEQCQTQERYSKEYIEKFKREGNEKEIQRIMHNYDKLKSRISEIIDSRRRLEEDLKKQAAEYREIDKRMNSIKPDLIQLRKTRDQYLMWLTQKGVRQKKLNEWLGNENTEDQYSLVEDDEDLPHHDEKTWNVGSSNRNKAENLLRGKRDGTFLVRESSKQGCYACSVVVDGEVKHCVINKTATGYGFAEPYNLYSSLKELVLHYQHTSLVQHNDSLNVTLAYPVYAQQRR
A general note: Time-resolved FRET reads energy transfer from a long-lived donor to a nearby acceptor.

Experiment [3] has as its target PI3Kα H1047R (Homo sapiens, UniProt P42336, H1047R). In words: PI3Kα H1047R enzyme assay (Transcreener ADP2 TR-FRET Red Assay). The class given is biochemical. The conditions noted are these: purified recombinant full-length protein; 2 hours pre-incubation with compound. A digest of the protocol:
as §2

For experiment [4], the system named is SKBR3 (PI3Kα-Wild Type) cell line. In words: HTRF phospho-AKT(S473) cell assay in SKBR3 cells. The experiment is classed as cell-based, human. The conditions noted are these: Homo sapiens, SK-BR-3; SKBR3 (PI3Kα-Wild Type) cells, HTRF phospho-AKT(S473), 2 hours compound incubation, PDGF-BB stimulated. A digest of the protocol:
as §1

Sequence of PI3Kα H1047R (P42336 whole entry H1047R): as the sequence (P42336 whole entry) above, with H1047R counted along it
Sequence of PI3Kα H1047R (P27986 2-724 partner): as the sequence (P27986 2-724 partner) above

As usually defined, the IC50 is the concentration needed to halve the response being measured. `CC(=O)NS(=O)(=O)c1nc(Cl)ccc1N[C@H](C)c1cc(F)cc2c(=O)n(C)c(N3CCC(F)(F)CC3)nc12` [Compound 77, (R)-N-((6-chloro-3-((1-(2-(4,4-difluoropiperidin-1-yl)-6-fluoro-3-methyl-4-oxo-3,4-dihydroquinazolin-8-yl)ethyl)amino)pyridin-2-yl)sulfonyl)acetamide]: the IC50 was 1000 to 5000 nM in experiment [1], at least 1000 nM in experiment [2], at least 1000 nM in experiment [3] and at least 5000 nM in experiment [4].

Turning to `C[C@@H](Nc1ccc(Cl)nc1C(=O)NS(C)(=O)=O)c1cc(F)cc2c(=O)n(C)c(N3Cc4cnn(C)c4C3)nc12` [Compound 28, (R)-6-chloro-3-((1-(6-fluoro-3-methyl-2-(1-methyl-4,6-dihydropyrrolo[3,4-c]pyrazol-5(1H)-yl)-4-oxo-3,4-dihydroquinazolin-8-yl)ethyl)amino)-N-(methylsulfonyl) picolinamide], the half-maximal inhibitory concentration (IC50) was under 250 nM in experiment [1], at least 1000 nM in experiment [2], 500 to 1000 nM in experiment [3] and 1000 to 5000 nM in experiment [4].

In the case of `Cc1cc([C@@H](C)Nc2ccc(Cl)nc2C(=O)NS(C)(=O)=O)c2nc(NCC(F)(F)F)n(C)c(=O)c2c1` [Compound 34, (R)-6-chloro-3-((1-(3,6-dimethyl-4-oxo-2-((2,2,2-trifluoroethyl)amino)-3,4-dihydroquinazolin-8-yl)ethyl)amino)-N-(methylsulfonyl) picolinamide], the half-inhibitory concentration (IC50) in experiment [1] was 250 to 500 nM; in experiment [2], at least 1000 nM; in experiment [3], 500 to 1000 nM; in experiment [4], 1000 to 5000 nM.

For `Cc1cc([C@@H](C)Nc2ccc(Cl)nc2C(=O)NS(C)(=O)=O)c2nc(NCc3ccc(F)cc3C)n(C)c(=O)c2c1` [Compound 17, (R)-6-chloro-3-((1-(2-((4-fluoro-2-methylbenzyl)amino)-3,6-dimethyl-4-oxo-3,4-dihydroquinazolin-8-yl)ethyl)amino)-N-(methylsulfonyl) picolinamide], the half-maximal inhibitory concentration (IC50) in experiment [1] was 1000 to 5000 nM; in experiment [2], at least 1000 nM; in experiment [3] it was at least 1000 nM; in experiment [4], at least 5000 nM.

Regarding `C[C@@H](Nc1ccc(Cl)nc1C(=O)NS(C)(=O)=O)c1cc(F)cc2c(=O)n(C)c(N3Cc4cn(C)nc4C3)nc12` [Compound 37, (R)-6-chloro-3-((1-(6-fluoro-3-methyl-2-(2-methyl-2,6-dihydropyrrolo[3,4-c]pyrazol-5(4H)-yl)-4-oxo-3,4-dihydroquinazolin-8-yl)ethyl)amino)-N-(methylsulfonyl) picolinamide], the 50% inhibitory concentration (IC50) in experiment [1] is under 250 nM; in experiment [2], at least 1000 nM; in experiment [3] it was 250 to 500 nM; in experiment [4], 500 to 1000 nM.

In the case of `C[C@@H](Nc1ccc(Cl)nc1C(=O)NS(C)(=O)=O)c1cc(F)cc2c(=O)n(C)c(N3CCC(F)(F)CC3)nc12` [Compound 3, (R)-6-chloro-3-((1-(2-(4,4-difluoropiperidin-1-yl)-6-fluoro-3-methyl-4-oxo-3,4-dihydroquinazolin-8-yl)ethyl)amino)-N-(methylsulfonyl) picolinamide], the IC50 in experiment [1] was under 250 nM; in experiment [2] it was at least 1000 nM; in experiment [3] it was 250 to 500 nM; in experiment [4], 1000 to 5000 nM.

On to `Cc1cc([C@@H](C)Nc2ccc(Cl)nc2S(=O)(=O)NC(=O)C(C)C)c2nc(N3Cc4ccc(F)cc4C3)n(C)c(=O)c2c1` [Compound 80, (R)-N-((6-chloro-3-((1-(2-(5-fluoroisoindolin-2-yl)-3,6-dimethyl-4-oxo-3,4-dihydroquinazolin-8-yl)ethyl)amino)pyridin-2-yl)sulfonyl)isobutyramide], for which the IC50 is 500 to 1000 nM in experiment [1], at least 1000 nM in experiment [2], 100 to 250 nM in experiment [3] and at least 5000 nM in experiment [4].

As to `Cc1cc([C@@H](C)Nc2ccc(Cl)nc2C(=O)NS(C)(=O)=O)c2nc(N(C)C34CC(C3)C4)n(C)c(=O)c2c1` [Compound 13, (R)-3-((1-(2-(bicyclo[1.1.1]pentan-1-yl(methyl)amino)-3,6-dimethyl-4-oxo-3,4-dihydroquinazolin-8-yl)ethyl)amino)-6-chloro-N-(methylsulfonyl) picolinamide], the IC50 in experiment [1] is 250 to 500 nM; in experiment [2], at least 1000 nM; in experiment [3], 500 to 1000 nM; in experiment [4], 1000 to 5000 nM.

Regarding `Cc1cc([C@@H](C)Nc2ccc(Cl)nc2C(=O)NS(C)(=O)=O)c2nc(N3CCC(F)(F)CC3)n(C)c(=O)c2c1` [Compound 57, (R)-6-chloro-3-((1-(2-(4,4-difluoropiperidin-1-yl)-3,6-dimethyl-4-oxo-3,4-dihydroquinazolin-8-yl)ethyl)amino)-N-(methylsulfonyl) picolinamide], the half-maximal inhibitory concentration (IC50) was 500 to 1000 nM in experiment [1], at least 1000 nM in experiment [2], at least 1000 nM in experiment [3] and 1000 to 5000 nM in experiment [4].

Take `C[C@@H](Nc1ccc(Cl)nc1C(=O)NS(C)(=O)=O)c1cc(F)cc2c(=O)n(C)c(N3CC4CC4C3)nc12` (stereo partly drawn) [Compound 29, 3-(((1R)-1-(2-(3-azabicyclo[3.1.0]hexan-3-yl)-6-fluoro-3-methyl-4-oxo-3,4-dihydroquinazolin-8-yl)ethyl)amino)-6-chloro-N-(methylsulfonyl) picolinamide]: the IC50 in experiment [1] was 250 to 500 nM; in experiment [2], at least 1000 nM; in experiment [3] it was 250 to 500 nM; in experiment [4] it was 1000 to 5000 nM.

Turning to `Cc1cc([C@@H](C)Nc2ccc(Cl)nc2C(=O)NS(C)(=O)=O)c2nc(-c3cnc(C)s3)n(C)c(=O)c2c1` [Compound 89, (R)-6-chloro-3-((1-(3,6-dimethyl-2-(2-methylthiazol-5-yl)-4-oxo-3,4-dihydroquinazolin-8-yl)ethyl)amino)-N-(methylsulfonyl) picolinamide], the IC50 is under 250 nM in experiment [1], 500 to 1000 nM in experiment [2], 100 to 250 nM in experiment [3] and 1000 to 5000 nM in experiment [4].

On to `Cc1cc([C@@H](C)Nc2cc(C)c(Cl)nc2C(=O)NS(C)(=O)=O)c2nc(N3Cc4ccc(F)cc4C3)n(C)c(=O)c2c1` [Compound 35, (R)-6-chloro-3-((1-(2-(5-fluoroisoindolin-2-yl)-3,6-dimethyl-4-oxo-3,4-dihydroquinazolin-8-yl)ethyl)amino)-5-methyl-N-(methylsulfonyl) picolinamide], for which the IC50 in experiment [1] was 1000 to 5000 nM; in experiment [2], at least 1000 nM; in experiment [3], at least 1000 nM; in experiment [4] it was at least 5000 nM.

For the molecule `CNS(=O)(=O)NC(=O)c1nc(Cl)ccc1N[C@H](C)c1cc(C)cc2c(=O)n(C)c(N3Cc4ccc(F)cc4C3)nc12` [Compound 73, (R)-6-chloro-3-((1-(2-(5-fluoroisoindolin-2-yl)-3,6-dimethyl-4-oxo-3,4-dihydroquinazolin-8-yl)ethyl)amino)-N-(N-methyl-sulfamoyl)picolinamide], the IC50 is under 250 nM in experiment [1], at least 1000 nM in experiment [2], 250 to 500 nM in experiment [3] and 1000 to 5000 nM in experiment [4].

With `Cc1cc([C@@H](C)Nc2ccc(Cl)nc2C(=O)NS(C)(=O)=O)c2nc(N3CCC(F)(F)C[C@@H]3C)n(C)c(=O)c2c1` (mixture of isomers) [Compound 12, 6-chloro-3-(((R)-1-(2-((S)-4,4-difluoro-2-methylpiperidin-1-yl)-3,6-dimethyl-4-oxo-3,4-dihydroquinazolin-8-yl)ethyl)amino)-N-(methylsulfonyl) picolinamide AND 6-chloro-3-(((R)-1-(2-((R)-4,4-difluoro-2-methylpiperidin-1-yl)-3,6-dimethyl-4-oxo-3,4-dihydroquinazolin-8-yl)ethyl)amino)-N-(methylsulfonyl) picolinamide], the IC50 was 250 to 500 nM in experiment [1], at least 1000 nM in experiment [2], 250 to 500 nM in experiment [3] and 1000 to 5000 nM in experiment [4].

As for `Cc1cc([C@@H](C)Nc2ccc(Cl)nc2C(=O)NS(C)(=O)=O)c2nc(N3CCCC3)n(C)c(=O)c2c1` [Compound 16], the IC50 is 250 to 500 nM in experiment [1], at least 1000 nM in experiment [2], 250 to 500 nM in experiment [3] and 1000 to 5000 nM in experiment [4].

Consider `Cc1cc([C@@H](C)Nc2ccc(Cl)nc2C(=O)NS(C)(=O)=O)c2nc(N3CCC4(CCOCC4)C3)n(C)c(=O)c2c1` [Compound 33, (R)-6-chloro-3-((1-(3,6-dimethyl-4-oxo-2-(8-oxa-2-azaspiro[4.5]decan-2-yl)-3,4-dihydroquinazolin-8-yl)ethyl)amino)-N-(methylsulfonyl) picolinamide], for which the IC50 in experiment [1] was 250 to 500 nM; in experiment [2], at least 1000 nM; in experiment [3] it was 250 to 500 nM; in experiment [4] it was 1000 to 5000 nM.

As to `C[C@@H](Nc1ccc(Cl)nc1C(=O)NS(C)(=O)=O)c1cc(F)cc2c(=O)n(C)c(N3Cc4cccnc4C3)nc12` [Compound 32, (R)-6-chloro-3-((1-(2-(5,7-dihydro-6H-pyrrolo[3,4-b]pyridin-6-yl)-6-fluoro-3-methyl-4-oxo-3,4-dihydroquinazolin-8-yl)ethyl)amino)-N-(methylsulfonyl) picolinamide], the IC50 was 250 to 500 nM in experiment [1], 500 to 1000 nM in experiment [2], 250 to 500 nM in experiment [3] and 1000 to 5000 nM in experiment [4].
